This is an account of results in US7985759B2, “Dipeptidyl peptidase IV inhibitors and processes for their preparation and pharmaceutical compositions containing them” (Matrix Laboratories Ltd., priority 2006, dated 2011).

For this experiment, the target named is T1, Human recombinant DPP-IV (Homo sapiens, UniProt P27487).
T1 construct: host or cells: Sf9 insect cells
Briefly: Assay of Dipeptidyl Peptidase IV activity (hydrolysis of Ala-Pro-AFC, fluorometric). The note with it: human recombinant DPP-IV (expressed in insect Sf9 cells), 20 μM Ala-Pro-AFC, 15 min preincubation, 30 min at 37° C., pH 8.0. The experiment is classed as biochemical. Here is the method:
Assay of Dipeptidyl Peptidase IV Activity
The inhibition of proteolytic activity of DPP-IV was assayed by following the hydrolysis of Ala-Pro-7-amino-4-trifluoromethylcoumarin (Ala-Pro-AFC) and fluorometric quantitation of the liberated AFC. Human recombinant DPP-IV (expressed in insect Sf9 cells) was used for the assay. Test compounds were dissolved in dimethyl sulfoxide (DMSO). Generally, the enzyme (about 20 ng/ml in 100 mM Tris-HCl buffer, pH 8.0) was preincubated in the absence (1% DMSO) and presence of various concentrations of the test compounds for 15 min at 37° C. The reaction was initiated by the addition of 20 μM Ala-Pro-AFC and further incubated for 30 min at 37° C. The AFC liberated was measured in a spectrofluorometer with excitation and emission wavelengths set at 400 nm and 510 nm, respectively. Results are expressed as percent inhibition of enzyme activity. A reference standard (a known inhibitor of DPP-IV) was always included in the assay.

T1 sequence (P27487 whole entry): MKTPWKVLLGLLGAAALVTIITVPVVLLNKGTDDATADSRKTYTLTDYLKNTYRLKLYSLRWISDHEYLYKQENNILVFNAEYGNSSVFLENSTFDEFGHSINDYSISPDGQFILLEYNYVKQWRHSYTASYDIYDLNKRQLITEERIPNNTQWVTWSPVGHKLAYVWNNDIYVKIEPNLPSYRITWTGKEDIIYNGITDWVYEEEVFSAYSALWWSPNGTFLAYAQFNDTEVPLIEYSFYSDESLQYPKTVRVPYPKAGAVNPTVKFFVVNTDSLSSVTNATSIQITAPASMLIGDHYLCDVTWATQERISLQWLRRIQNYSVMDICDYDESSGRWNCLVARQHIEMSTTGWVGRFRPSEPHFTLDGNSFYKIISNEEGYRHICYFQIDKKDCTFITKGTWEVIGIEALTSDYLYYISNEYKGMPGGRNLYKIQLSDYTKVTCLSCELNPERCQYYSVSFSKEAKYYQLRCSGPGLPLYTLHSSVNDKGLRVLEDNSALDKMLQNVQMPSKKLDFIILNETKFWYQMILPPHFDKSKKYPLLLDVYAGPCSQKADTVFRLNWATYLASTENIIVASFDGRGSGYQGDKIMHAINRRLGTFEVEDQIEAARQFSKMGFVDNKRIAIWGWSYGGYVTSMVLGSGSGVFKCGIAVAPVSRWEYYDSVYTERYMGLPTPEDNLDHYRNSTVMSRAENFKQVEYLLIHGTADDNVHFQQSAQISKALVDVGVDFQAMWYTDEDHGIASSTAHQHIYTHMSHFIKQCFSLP

Turning to `N#C[C@@H]1CCCN1C(=O)CNC12CC3CC1CC(N)(C3)C2` (stereo partly drawn) [Example 24, (2S)-1-{[(1-aminotricyclo[3.3.1.0^3,7]non-3-yl)amino]acetyl}pyrrolidine-2-carbonitrile], the IC50 is 0.1 µM.

Consider `N#C[C@@H]1CCCN1C(=O)CNC12CC3CC1CC(CN1C(=O)c4ccccc4C1=O)(C3)C2` (stereo partly drawn) [Example 10, (2S)-1-{N-[2-[(1,3-dioxo-1,3-dihydro-2H-isoindol-2-yl)methyl]hexahydro-2,5-methanopentalen-3a(1H)-yl]glycyl}pyrrolidine-2-carbonitrile], for which the IC50 was about 0.03 µM.

Regarding `N#C[C@@H]1CCCN1C(=O)CNC12CC3CC1CC(N1CCCC1=O)(C3)C2` (stereo partly drawn) [Example 26, (2S)-1-{N-[2-(2-oxopyrrolidin-1-yl)hexahydro-2,5-methanopentalen-3a(1H)-yl]glycyl}pyrrolidine-2-carbonitrile], the IC50 came to 0.0218 µM.

For `N#C[C@@H]1CCCN1C(=O)CNC12CC3CC1CC(Cc1ncon1)(C3)C2` (stereo partly shown) [Example 31], the 50% inhibitory concentration (IC50) was determined as 0.021 µM.

On to `N#C[C@@H]1CCCN1C(=O)CNC12CC3CC(CC1C3)C2` [Example 20, (2S)-1-[(tricyclo[3.3.1.0^3,7]non-3-ylamino)acetyl]pyrrolidine-2-carbonitrile], for which the IC50 worked out at 0.03 µM.

For `N#C[C@@H]1CCCN1C(=O)CNC12CC3CC1CC(N1CCCS1(=O)=O)(C3)C2` (stereo partly drawn) [Example 27, (2S)-1-{N-[2-(1,1-dioxidoisothiazolidin-2-yl)hexahydro-2,5-methanopentalen-3a(1H)-yl]glycyl}pyrrolidine-2-carbonitrile], the IC50 was 0.03 µM.

Consider `N#C[C@@H]1CSCN1C(=O)CNC12CC3CC1CC(Cn1cncn1)(C3)C2` (stereo partly drawn) [Example 4, (4R)-3-{N-[2-(1H-1,2,4-triazol-1-ylmethyl)hexahydro-2,5-methanopentalen-3a(1H)-yl]glycyl}-1,3-thiazolidine-4-carbonitrile], for which the IC50 amounted to 0.007 µM.

Take `N#C[C@@H]1CCCN1C(=O)CNC12CC3CC1CC(c1ccc(N)cc1)(C3)C2` (stereo partly drawn) [Example 30, (2S)-1-{N-[2-(4-aminophenyl)hexahydro-2,5-methanopentalen-3a(1H)-yl]glycyl}pyrrolidine-2-carbonitrile]: the IC50 is about 0.0324 µM.

Consider `N#C[C@@H]1C[C@H](F)CN1C(=O)CNC12CC3CC1CC(c1ccc(N4CCCC4=O)cc1)(C3)C2` (stereo partly drawn) [Example 16, (2S,4S)-4-fluoro-1-{N-[2-[4-(2-oxopyrrolidin-1-1)phenyl]hexahydro-2,5-methanopentalen-3a(1H)-yl]glycyl}pyrrolidine-2-carbonitrile], for which the IC50 turned out to be 0.00095 µM.

Regarding `N#C[C@@H]1CCCN1C(=O)CNC12CC3CC1CC(CN1CCSCC1)(C3)C2` (stereo partly drawn) [Example 7, (2S)-1-{N-[2-(thiomorpholin-4-ylmethyl)hexahydro-2,5-methanopentalen-3a(1H)-yl]glycyl}pyrrolidine-2-carbonitrile], the IC50 was determined as 0.03 µM.

In the case of `N#C[C@@H]1C[C@@H](F)CN1C(=O)CNC12CC3CC1CC(Cn1cncn1)(C3)C2` (stereo partly drawn) [Example 3, (2S,4R)-4-fluoro-1-{N-[2-(1H-1,2,4-triazol-1-ylmethyl)hexahydro-2,5-methanopentalen-3a(1H)-yl]glycyl}pyrrolidine-2-carbonitrile], the IC50 is over 0.3 µM.

In the case of `N#C[C@@H]1CCCN1C(=O)CNC12CC3CC1CC(c1ccc(N4CCCC4=O)cc1)(C3)C2` (stereo partly drawn) [Example 15, (2S)-1-{N-[2-[4-(2-oxopyrrolidin-1-yl)phenyl]hexahydro-2,5-methanopentalen-3a(1H)-yl]glycyl}pyrrolidine-2-carbonitrile], the IC50 came to 0.004 µM.

`N#C[C@@H]1CCCN1C(=O)CNC12CC3CC1CC(c1ccc(-n4cccc4)cc1)(C3)C2` (stereo partly drawn) [Example 18, (2S)-1-{N-[2-[4-(1H-pyrrol-1-yl)phenyl]hexahydro-2,5-methanopentalen-3a (1H)-yl]glycyl}pyrrolidine-2-carbonitrile]: the IC50 was about 0.03 µM.

For `CCOC12CC3CC(C1)C(NCC(=O)N1CCC[C@H]1C#N)(C3)C2` (stereo partly drawn) [Example 23, (2S)-1-{[(1-ethoxytricyclo[3.3.1.0^3,7]non-3-yl)amino]acetyl}pyrrolidine-2-carbonitrile], the IC50 turned out to be 0.0119 µM.

With `N#C[C@@H]1CCCN1C(=O)CNC12CC3CC1CC(c1ccc(N4CCNC4=O)cc1)(C3)C2` (stereo partly drawn) [Example 19, (2S)-1-{N-[2-[4-(2-oxoimidazolidin-1-yl)phenyl]hexahydro-2,5-methanopentalen-3a(1H)-yl]glycyl}pyrrolidine-2-carbonitrile], the IC50 was 0.0154 µM.

Take `N#C[C@@H]1CCCN1C(=O)CNC12CC3CC1CC(F)(C3)C2` (stereo partly drawn) [Example 25, (2S)-1-[N-(2-fluorohexahydro-2,5-methanopentalen-3a(1H)-yl)glycyl]pyrrolidine-2-carbonitrile]: the IC50 is 0.1 µM.

Turning to `N#C[C@@H]1C[C@H](F)CN1C(=O)CNC12CC3CC1CC(Cn1cncn1)(C3)C2` (stereo partly drawn) [Example 2, (2S,4S)-4-fluoro-1-{N-[2-(1H-1,2,4-triazol-1-ylmethyl)hexahydro-2,5-methanopentalen-3a(1H)-yl]glycyl}pyrrolidine-2-carbonitrile], the IC50 stood at 0.0028 µM.

Consider `N#C[C@@H]1CCCN1C(=O)CNC12CC3CC1CC(O)(C3)C2` (stereo partly drawn) [Example 21, (2S)-1-{[(1-hydroxytricyclo[3.3.1.0^3,7]non-3-yl)amino]acetyl}pyrrolidine-2-carbonitrile], for which the IC50 was determined as 0.0645 µM.

Take `N#C[C@@H]1CCCN1C(=O)CNC12CC3CC1CC(c1ccc(N4CCCS4(=O)=O)cc1)(C3)C2` (stereo partly drawn) [Example 11, (2S)-1-{N-[2-[4-(1,1-dioxidoisothiazolidin-2-yl)phenyl]hexahydro-2,5-methanopentalen-3a(1H)-yl]glycyl}pyrrolidine-2-carbonitrile]: the IC50 was 0.02 µM.

`N#C[C@@H]1CCCN1C(=O)CNC12CC3CC1CC(c1ccccc1)(C3)C2` (stereo partly drawn) [Example 28, (2S)-1-[N-(2-phenylhexahydro-2,5-methanopentalen-3a(1H)-yl)glycyl]pyrrolidine-2-carbonitrile]: the IC50 came to 0.03 µM.

For `N#C[C@@H]1CCCN1C(=O)CNC12CC3CC1CC(Cn1cncn1)(C3)C2` (stereo partly drawn) [Example 1, (2S)-1-[1H-1,2,4-triazol-1-ylmethyl(tricyclo[3.3.1.0^3,7]non-3-ylamino)acetyl]pyrrolidine-2-carbonitrile], the IC50 is 0.0081 µM.

With `N#C[C@@H]1CCCN1C(=O)CNC12CC3CC1CC(c1ccc([N+](=O)[O-])cc1)(C3)C2` (stereo partly drawn) [Example 29, (2S)-1-{N-[2-(4-nitrophenyl)hexahydro-2,5-methanopentalen-3a(1H)-yl]glycyl}pyrrolidine-2-carbonitrile], the concentration for half-maximal inhibition (IC50) was about 0.03 µM.

As for `N#C[C@@H]1CCCN1C(=O)CNC12CC3CC1CC(CN1CCCS1(=O)=O)(C3)C2` (stereo partly drawn) [Example 8, (2S)-1-{N-[2-[(1,1-dioxidoisothiazolidin-2-yl)methyl]hexahydro-2,5-methanopentalen-3a(1H)-yl]glycyl}pyrrolidine-2-carbonitrile], the IC50 was found to be 0.022 µM.

Take `N#C[C@@H]1C[C@H](F)CN1C(=O)CNC12CC3CC1CC(c1ccc(N4CCCS4(=O)=O)cc1)(C3)C2` (stereo partly drawn) [Example 12, (2S,4S)-1-{N-[2-[4-(1,1-dioxidoisothiazolidin-2-yl)phenyl]hexahydro-2,5-methanopentalen-3a(1H)-yl]glycyl}-4-fluoropyrrolidine-2-carbonitrile]: the IC50 came out at 0.005 µM.

In the case of `COC12CC3CC(C1)C(NCC(=O)N1CCC[C@H]1C#N)(C3)C2` (stereo partly drawn) [Example 22, (2S)-1-{[(1-methoxytricyclo[3.3.1.0^3,7]non-3-yl)amino]acetyl}pyrrolidine-2-carbonitrile], the half-maximal inhibitory concentration (IC50) came out at 0.03 µM.

Regarding `N#C[C@@H]1CSCN1C(=O)CNC12CC3CC1CC(c1ccc(N4CCCC4=O)cc1)(C3)C2` (stereo partly drawn) [Example 17, (4R)-3-{N-[2-[4-(2-oxopyrrolidin-1-yl)phenyl]hexahydro-2,5-methanopentalen-3a(1H)-yl]glycyl}-1,3-thiazolidine-4-carbonitrile], the IC50 came out at 0.0087 µM.

With `N#C[C@@H]1CCCN1C(=O)CNC12CC3CC1CC(CN1C(=O)CSC1=O)(C3)C2` (stereo partly drawn) [Example 9, (2S)-1-{N-[2-[(2,4-dioxo-1,3-thiazolidin-3-yl)methyl]hexahydro-2,5-methanopentalen-3a(1H)-yl]glycyl}pyrrolidine-2-carbonitrile], the IC50 came out at 0.0312 µM.

Turning to `CN1CCN(CC23CC4CC(C2)C(NCC(=O)N2CCC[C@H]2C#N)(C4)C3)CC1` (stereo partly drawn) [Example 6, (2S)-1-{N-[2-[(4-methylpiperazin-1-yl)methyl]hexahydro-2,5-methanopentalen-3a (1H)-yl]glycyl}pyrrolidine-2-carbonitrile], the IC50 is 0.1 µM.

On to `N#C[C@@H]1CCCN1C(=O)CNC12CC3CC1CC(Cn1cnnn1)(C3)C2` (stereo partly drawn) [Example 5, (2S)-1-{N-[2-(1H-tetrazol-1-ylmethyl)hexahydro-2,5-methanopentalen-3a(1H)-yl]glycyl}pyrrolidine-2-carbonitrile], for which the IC50 stood at 0.011 µM.

Consider `N#C[C@@H]1CSCN1C(=O)CNC12CC3CC1CC(c1ccc(N4CCCS4(=O)=O)cc1)(C3)C2` (stereo partly drawn) [Example 14, (4R)-3-{N-[2-[4-(1,1-dioxidoisothiazolidin-2-yl)phenyl]hexahydro-2,5-methanopentalen-3a(1H)-yl]glycyl}-1,3-thiazolidine-4-carbonitrile], for which the IC50 was determined as 0.0064 µM.

Take `CN1CCN(c2ccc(C34CC5CC(C3)C(NCC(=O)N3CCC[C@H]3C#N)(C5)C4)cc2)C1=O` (stereo partly shown) [Example 32]: the IC50 is 0.0536 µM.

By IC50 is commonly meant the concentration that gives 50% inhibition.
